Active and inactive are the calls of the source. The calls are words filed in the database; no cut-off is given here.
Key:
Candida albicans [1] = test: Antifungal activity against Candida albicans isolate 2 assessed as reduction in fungal growth incubated for 48 hrs by broth microdilution method; type: functional
Candida albicans [2] = test: Antifungal activity against Candida albicans isolate 4 assessed as reduction in fungal growth incubated for 48 hrs by broth microdilution method; type: functional
Candida albicans [3] = test: Antifungal activity against Candida albicans isolate 6 assessed as reduction in fungal growth incubated for 48 hrs by broth microdilution method; type: functional
Candida albicans [4] = test: Antifungal activity against Candida albicans isolate 8 assessed as reduction in fungal growth incubated for 48 hrs by broth microdilution method; type: functional
Candida albicans [5] = test: Antifungal activity against Candida albicans isolate 9 assessed as reduction in fungal growth incubated for 48 hrs by broth microdilution method; type: functional
Candida albicans [6] = test: Fungicidal activity against Candida albicans ATCC 18804 assessed as fungal killing incubated for 48 hrs followed by plating on SD agar plate; type: functional; details: read-out: MFC99.9
Candida tropicalis [7] = test: Fungicidal activity against Candida tropicalis ATCC 28707 assessed as fungal killing incubated for 48 hrs followed by plating on SD agar plate; type: functional; details: read-out: MFC99.9
Candida albicans [8] = test: Fungicidal activity against Candida albicans isolate 2 assessed as fungal killing incubated for 48 hrs followed by plating on SD agar plate; type: functional; details: read-out: MFC99.9
Candida albicans [9] = test: Fungicidal activity against Candida albicans isolate 3 assessed as fungal killing incubated for 48 hrs followed by plating on SD agar plate; type: functional; details: read-out: MFC99.9
Candida albicans [10] = test: Fungicidal activity against Candida albicans isolate 12 assessed as fungal killing incubated for 48 hrs followed by plating on SD agar plate; type: functional; details: read-out: MFC99.9
Candida albicans [11] = test: Disruption of cell membrane in Candida albicans ATCC 10231 assessed as increase in intracellular leakage at MIC incubated for 24 hrs by UV spectrophotometric analysis; type: cell-based
Nakaseomyces glabratus [12] = test: Disruption of cell membrane in Candida glabrata ATCC 2001 assessed as increase in intracellular leakage at MIC incubated for 24 hrs by UV spectrophotometric analysis; type: cell-based
Candida albicans [13] = test: Disruption of cell membrane in Candida albicans ATCC 10231 assessed as increase in number of invagination at 2 times of MIC incubated for 1 hr by SEM analysis
Nakaseomyces glabratus [14] = test: Antifungal activity against Candida glabrata ATCC 2001 assessed as reduction in fungal growth incubated for 48 hrs in presence of sorbitol by broth microdilution method; type: functional
Pichia kudriavzevii = test: Antifungal activity against Candida krusei ATCC 34135 assessed as reduction in fungal growth incubated for 48 hrs in presence of ergosterol by broth microdilution method; type: functional
Candida tropicalis [15] = test: Antifungal activity against Candida tropicalis ATCC 28707 assessed as reduction in fungal growth incubated for 48 hrs in presence of ergosterol by broth microdilution method; type: functional
Candida albicans [16] = test: Antibiofilm activity against Candida albicans ATCC 10231 assessed as reduction in mature biofilm at 125 ug/ml incubated for 48 hrs by crystal violet staining based spectrophotometric analysis relative to control; type: functional
Candida albicans [17] = test: Antibiofilm activity against Candida albicans ATCC 10231 assessed as reduction in mature biofilm incubated for 48 hrs by crystal violet staining based spectrophotometric analysis relative to control; type: functional, organism-based; details: dose 0.48-125 µg/ml
Candida albicans [18] = test: Antibiofilm activity against Candida albicans ATCC 10231 assessed as reduction in biofilm formation at 0.24 to 7.81 ug/ml by crystal violet staining based spectrophotometric analysis; type: functional, organism-based; details: dose 0.24-7.81 µg/ml
[19] = Toxicity in Swiss mouse assessed as body weight at 10 mg/kg, ip measured after 24 hrs (reference value: 36.25 +/- 0.31 g); type: organism-based; details: in vivo
[20] = Toxicity in Swiss mouse assessed as body weight at 20 mg/kg, ip measured after 24 hrs (reference value: 36.25 +/- 0.31 g); type: organism-based; details: in vivo
[21] = Toxicity in Swiss mouse assessed as relative lung weight at 0.5 mg/kg, ip measured after 24 hrs (reference value: 6.35 +/- 0.68 g); type: organism-based; details: in vivo
[22] = Toxicity in Swiss mouse assessed as relative lung weight at 3 mg/kg, ip measured after 24 hrs (reference value: 6.35 +/- 0.68 g); type: organism-based; details: in vivo
[23] = Toxicity in Swiss mouse assessed as relative lung weight at 10 mg/kg, ip measured after 24 hrs (reference value: 6.35 +/- 0.68 g); type: organism-based; details: in vivo
[24] = Toxicity in Swiss mouse assessed as relative kidney weight at 1 mg/kg, ip measured after 24 hrs (reference value: 14.91 +/- 0.99 g); type: organism-based; details: in vivo
[25] = Toxicity in Swiss mouse assessed as relative kidney weight at 3 mg/kg, ip measured after 24 hrs (reference value: 14.91 +/- 0.99 g); type: organism-based; details: in vivo
[26] = Toxicity in Swiss mouse assessed as relative heart weight at 1 mg/kg, ip measured after 24 hrs (reference value: 4.75 +/- 0.60 g); type: organism-based; details: in vivo
[27] = Toxicity in Swiss mouse assessed as relative liver weight at 1 mg/kg, ip measured after 24 hrs (reference value: 49.42 +/- 7.17 g); type: organism-based; details: in vivo
[28] = Toxicity in Swiss mouse assessed as ataxia at 20 mg/kg, ip measured after 30 mins; type: organism-based; details: in vivo, 0.5 h
Candida albicans [29] = test: In vivo antifungal activity in Swiss mouse infected with Candida albicans ATCC 10231 assessed as reduction in fungal load in liver at 0.5 mg/kg, ip administered at 2, 24 and 48 hrs post-infection and measured per gm of organ at 24 hrs post-last dose (reference value: 1.80); type: functional; details: time 72 hrs
Candida albicans [30] = test: In vivo antifungal activity in Swiss mouse infected with Candida albicans ATCC 10231 assessed as reduction in fungal load in kidney at 1 mg/kg, ip administered at 2, 24 and 48 hrs post-infection and measured per gm of organ at 24 hrs post-last dose (reference value: 2.47); type: functional; details: time 72 hrs
[31] = Toxicity in Swiss mouse assessed as effect on liver at 0.5 to 10 mg/kg, ip measured after 24 hrs by macroscopic analysis; type: organism-based; details: in vivo, dose 0.5-10 mg/kg
[32] = Toxicity in Swiss mouse infected with Candida albicans ATCC 10231 assessed as effect on kidney weight at 10 mg/kg, ip administered at 2, 24 and 48 hrs post-infection and measured at 24 hrs after last dose; type: organism-based; details: in vivo, 72 h
[33] = Toxicity in Swiss mouse infected with Candida albicans ATCC 10231 assessed as effect on spleen weight at 10 mg/kg, ip administered at 2, 24 and 48 hrs post-infection and measured at 24 hrs after last dose; type: organism-based; details: in vivo, 72 h
[34] = Toxicity in Swiss mouse infected with Candida albicans ATCC 10231 assessed as effect on liver at 10 mg/kg, ip administered at 2, 24 and 48 hrs post-infection and measured at 24 hrs after last dose by macroscopic analysis; type: organism-based; details: in vivo, 72 h
[35] = Toxicity in Swiss mouse infected with Candida albicans ATCC 10231 assessed as effect on lung at 10 mg/kg, ip administered at 2, 24 and 48 hrs post-infection and measured at 24 hrs after last dose by macroscopic analysis; type: organism-based; details: in vivo, 72 h

## [Cl-].[N-]=[N+]=NCCCCCCCCCCCCOCCCc1ccc[n+](Cc2ccccc2)c1
Candida albicans [1]
  MIC: 7.8 µg/mL
Candida albicans [2]
  MIC: 1.95 µg/mL
Candida albicans [3]
  MIC: 15.6 µg/mL
Candida albicans [4]
  MIC: 3.9 µg/mL
Candida albicans [5]
  MIC: 15.6 µg/mL
Candida albicans [6]
  MFC: 31.2 µg/mL
Candida tropicalis [7]
  MFC: 15.6 µg/mL
Candida albicans [8]
  MFC: 7.8 µg/mL
Candida albicans [9]
  MFC: 7.8 µg/mL
Candida albicans [10]
  MFC: 7.8 µg/mL
Candida albicans [11]
  Activity: Active
Nakaseomyces glabratus [12]
  Activity: Active
Candida albicans [13]
  Activity: Active
Nakaseomyces glabratus [14]
  MIC: 7.8 µg/mL
Pichia kudriavzevii
  MIC: 15.6 µg/mL
Candida tropicalis [15]
  MIC: 15.6 µg/mL
Candida albicans [16]
  inhibition at 125 µg/mL: 40%
Candida albicans [17]
  Activity: Dose-dependent effect
Candida albicans [18]
  Activity: Active
[19]
  Activity: 31.37 g
[20]
  Activity: 32.5 g
[21]
  Activity: 5.57 g
[22]
  Activity: 5.19 g
[23]
  Activity: 6.01 g
[24]
  Activity: 13.58 g
[25]
  Activity: 14.73 g
[26]
  Activity: 5.39 g
[27]
  Activity: 44.68 g
[28]
  Activity: Toxic
Candida albicans [29]
  Activity: 0 log10CFU
Candida albicans [30]
  Activity: 0 log10CFU
[31]
  Activity: Non-Toxic
[32]
  Activity: Non-Toxic
[33]
  Activity: Non-Toxic
[34]
  Activity: Non-Toxic
[35]
  Activity: Non-Toxic

— ChEMBL document CHEMBL4732126, “Design, synthesis, and biodistribution studies of new analogues of marine alkaloids: Potent in vitro and in vivo fungicidal agents against Candida spp” (Eur J Med Chem, 2021)
